Patent publication US11440913B2, “Aminoimidazopyridazines as kinase inhibitors” (BRISTOL-MYERS SQUIBB COMPANY, priority 2017, dated 2022)
Counter-ions that a name gives are not always drawn. Like-named read-outs stand apart in the source and are kept apart here.

Assays:
[1] = molecular target: His-GST-TVMV-hRIPK1(1-324) (Homo sapiens (Human), UniProt Q13546); experiment: RIPK1 HTRF Binding Assay; details: HTRF binding, 1 h at rt; read-out: RIPK1 (IC50)
How it was run: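 HTRF probe-displacement binding: 1 nM His-GST-TVMV-hRIPK1(1-324) (baculovirus construct), 90.6 nM probe, 0.2 nM anti-GST-Tb in 20 mM HEPES, 10 mM MgCl2, 0.015% Brij-35, 4 mM DTT, 0.05 mg/mL BSA. Incubated 1 h at rt; FRET 520/495 nm ratio, inhibition relative to DMSO-only wells.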

[2] = test system: MLKL phosphorylation in HT29-L23 human colorectal adenocarcinoma cells; experiment: MLKL Phosphorylation High-Content Assay; format: cell-based; details: 6 h, necroptosis induced with TNFα, SMAC mimetic and Z-VAD, read-out: pMLKL (IC50)
How it was run: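 HT29-L23 cells pretreated 30 min at 37 °C with compound (6.25 to 0.106 μM final), then necroptosis induced with TNFα 35 ng/mL, SMAC mimetic 700 nM and Z-VAD 140 nM for 6 h. Fixed cells immunostained for MLKL pS358 and imaged; IC50 and Ymax from 4-parameter logistic fit.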

His-GST-TVMV-hRIPK1(1-324), sequence (Q13546 1-324): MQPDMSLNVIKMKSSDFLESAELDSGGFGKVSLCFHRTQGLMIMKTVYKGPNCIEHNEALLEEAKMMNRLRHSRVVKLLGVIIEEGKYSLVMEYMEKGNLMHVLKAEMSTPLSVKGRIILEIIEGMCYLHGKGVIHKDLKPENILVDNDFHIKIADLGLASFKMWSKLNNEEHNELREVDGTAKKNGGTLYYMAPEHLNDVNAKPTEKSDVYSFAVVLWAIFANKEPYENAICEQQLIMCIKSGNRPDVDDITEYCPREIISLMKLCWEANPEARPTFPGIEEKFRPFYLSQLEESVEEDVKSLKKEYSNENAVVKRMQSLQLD

Compound	IC50 [1] [nM]	IC50 ([2]; Homo sapiens) [nM]	IC50 [2] [nM]
CC(=O)Nc1cn2nc(-c3cnc(C)c(C(=O)NCc4ccccc4OC(C)C)c3)ccc2n1 [Example 20, 5-{2-acetamidoimidazo[1,2-b]pyridazin-6-yl}-2-methyl-N-{[2-(propan-2-yloxy)phenyl]methyl}pyridine-3-carboxamide]	46	63	
CC(=O)Nc1cn2nc(-c3ccc(Cl)c(C(=O)NCC[C@H](O)c4ccc(Cl)cc4)c3F)ccc2n1 [Example 390, 6-chloro-N-[(3S)-3-(4-chlorophenyl)-3-hydroxypropyl]-3-{2-acetamidoimidazo [1,2-b]pyridazin-6-yl}-2-fluorobenzamide]	5	3	
COc1ncc(-c2ccc3nc(NC(C)=O)cn3n2)cc1C(=O)N[C@H](C)c1cc(C(F)(F)F)ccc1F [Example 107, 5-{2-acetamidoimidazo[1,2-b]pyridazin-6-yl}-N-[(1R)-1-[2-fluoro-5-(trifluoromethyl)phenyl](2,2,2-deutero)ethyl]-2-methoxypyridine-3-carboxamide]	193		306
CC(=O)OCC(=O)Nc1cn2nc(-c3cc(C(=O)NCc4cc(OC(F)(F)F)ccc4F)c(C)nc3C)ccc2n1 [Example 327, ({6-[5-({[2-fluoro-5-(trifluoromethoxy)phenyl]methyl}carbamoyl)-2,6-dimethylpyridin-3-yl]imidazo[1,2-b]pyridazin-2-yl}carbamoyl)methyl acetate]	5	25	
Cc1ncc(-c2ccc3nc(NC(=O)CN4CCN(C)CC4)cn3n2)cc1C(=O)N[C@H](C)c1cc(C(F)(F)F)ccc1F [Example 332, N-[(1R)-1-[2-fluoro-5-(trifluoromethyl)-phenyl]ethyl]-2-methyl-5-{2-[2-(4-methylpiperazin-1-yl)acetamido]imidazo[1,2-b]pyridazin-6-yl}pyridine-3-carboxamide]	308	25	
COc1ncc(-c2ccc3nc(NC(C)=O)c(C)n3n2)cc1C(=O)NCCC(C)c1ccccc1 (stereo not shown) [Example 256, 5-{2-acetamido-3-methylimidazo[1,2-b]pyridazin-6-yl}-2-methoxy-N-(3-phenylbutyl)pyridine-3-carboxamide, TFA]	9	27	
CC(=O)Nc1cn2nc(-c3cc(F)c(C)c(C(=O)NCc4cc(OC(F)(F)F)ccc4F)c3)ccc2n1 [Example 359, 5-{2-acetamidoimidazo [1,2-b]pyridazin-6-yl}-3-fluoro-N-{[2-fluoro-5-(trifluoromethoxy)phenyl]methyl}-2-methylbenzamide]	78	5	
COc1ncc(-c2ccc3nc(NC(C)=O)cn3n2)cc1C(=O)N[C@H](C)c1ccccc1C(F)(F)F [Example 104, 5-{2-acetamidoimidazo[1,2-b]pyridazin-6-yl}-2-methoxy-N-[(1R)-1-[2-(trifluoromethyl)phenyl]ethyl]pyridine-3-carboxamide]	36	73	
CC(=O)Nc1cn2nc(-c3ccc(C)c(C(=O)NCc4cc(C(=O)N5CCC(C)(C)C5)ccc4F)c3)ccc2n1 [Example 406, N-{[5-(3,3-dimethylpyrrolidine-1-carbonyl)-2-fluorophenyl]methyl}-5-{2-acetamidoimidazo [1,2-b]pyridazin-6-yl}-2-methylbenzamide]	163	454	
COc1ncc(-c2ccc3nc(NC(C)=O)cn3n2)cc1C(=O)NCc1ncccc1OC(C)C1CC1 (stereo not shown) [Example 136, N-{[3-(1-cyclopropylethoxy)pyridin-2-yl]methyl}-5-{2-acetamidoimidazo[1,2-b]pyridazin-6-yl}-2-methoxypyridine-3-carboxamide]	17	100	
CC(=O)Nc1cn2nc(-c3cc(C(=O)NCc4ccccc4OCC4CCCC4)c(C)nc3C)ccc2n1 [Example 85, N-{[2-(cyclopentylmethoxy)phenyl]methyl}-5-{2-acetamidoimidazo[1,2-b]pyridazin-6-yl}-2,6-dimethylpyridine-3-carboxamide]	4	12	
CC(=O)Nc1cn2nc(-c3cnc(Cl)c(C(=O)NCc4cccc(OC(F)(F)F)c4)c3)ccc2n1 [Example 272, 2-chloro-5-{2-acetamidoimidazo[1,2-b]pyridazin-6-yl}-N-{[3-(trifluoromethoxy)phenyl]methyl}pyridine-3-carboxamide, TFA]	26		122
[2H]C([2H])([2H])Oc1ncc(-c2ccc3nc(NC(C)=O)cn3n2)cc1C(=O)NCc1cc(OCC2CC2)ccc1F [Example 56, N-{[5-(cyclopropylmethoxy)-2-fluorophenyl]methyl}-5-{2-acetamidoimidazo[1,2-b]pyri-dazin-6-yl}-2-(D3)methoxypyridine-3-carboxamide, TFA]	13	67	
CCC(=O)Nc1cn2nc(-c3cnc(OC)c(C(=O)NCc4cc(OCC5CC5)ccc4F)c3)ccc2n1 [Example 250, N-{[5-(cyclopropylmethoxy)-2-fluorophenyl]methyl}-2-methoxy-5-{2-propanamidoimidazo[1,2-b]pyridazin-6-yl}pyridine-3-carboxamide]	18	61	
COc1ncc(-c2ccc3nc(NC(C)=O)cn3n2)cc1C(=O)NCc1cccc(F)c1OCC1CC1 [Example 151, N-{[2-(cyclopropylmethoxy)-3-fluorophenyl]methyl}-5-{2-acetamidoimidazo[1,2-b]pyridazin-6-yl}-2-methoxypyridine-3-carboxamide, TFA]	8		6
CC(=O)Nc1cn2nc(-c3cc(C(=O)NCc4ccccc4OC(F)(F)F)cnc3C)ccc2n1 [Example 233, 5-{2-acetamidoimidazo[1,2-b]pyridazin-6-yl}-6-methyl-N-{[2-(trifluoromethoxy)phenyl]methyl}pyridine-3-carboxamide]	38	276	
[2H]C([2H])([2H])[C@@H](NC(=O)c1cc(-c2ccc3nc(NC(C)=O)cn3n2)cnc1C)c1cc(OC(F)(F)F)ccc1F [Example 199, 5-{2-acetamidoimidazo[1,2-b]pyridazin-6-yl}-N-[(1R)-1-[2-fluoro-5-(trifluoromethoxy)phenyl](2,2,2-deutero)ethyl]-2-methylpyridine-3-carboxamide]	13	17	
COc1ncc(-c2ccc3nc(NC(=O)CC#N)cn3n2)cc1C(=O)NCc1cc(F)cc(F)c1OCC1CC1 [Example 7, 5-[2-(2-cyanoacetamido)imidazo[1,2-b]pyridazin-6-yl]-N-{[2-(cyclopropylmethoxy)-3,5-difluorophenyl]methyl}-2-methoxypyridine-3-carboxamide]	14	38	
5-{2-acetamidoimidazo[1,2-b]pyridazin- 6-yl}-N-{[2-fluoro-5- (trifluoromethoxy)phenyl]- (deutero)methyl}-2-methoxy-6- methylpyridine-3-carboxamide [Example 282]	10		8
COc1ncc(-c2ccc3nc(NC(C)=O)cn3n2)cc1C(=O)NCc1cc(C(F)(F)F)ccc1Cl [Example 147, N-{[2-chloro-5-(trifluoromethyl)phenyl]methyl}-5-{2-acetamidoimidazo[1,2-b]pyridazin-6-yl}-2-methoxypyridine-3-carboxamide]	95	37	
N-({3,5-difluoro-2-[(3S)-oxolan- 3-yloxy]phenyl}methyl)-5-{2- acetamidoimidazo[1,2-b]pyridazin- 6-yl}-2-(D3)methoxypyridine- 3-carboxamide [Example 45]	13		25
CCC(=O)Nc1cn2nc(-c3cnc(OC)c(C(=O)N[C@H](C)c4cc(OC(F)(F)F)ccc4F)c3)ccc2n1 [Example 245, N-[(1R)-1-[2-fluoro-5-(trifluoromethoxy)phenyl]ethyl]-2-methoxy-5-{2-propanamidoimidazo[1,2-b]pyridazin-6-yl}pyridine-3-carboxamide]	486	132	
COc1ncc(-c2ccc3nc(NC(C)=O)cn3n2)cc1C(=O)NC(C)c1ccccc1OC(F)(F)F (stereo not shown) [Example 139, 5-{2-acetamidoimidazo[1,2-b]pyridazin-6-yl}-2-methoxy-N-{1-[2-(trifluoro-methoxy)phenyl]ethyl}pyridine-3-carboxamide]	15		25
Cc1nc(C)c(-c2ccc3nc(NC(=O)CO)cn3n2)cc1C(=O)NCc1cc(C(F)(F)F)ccc1F [Example 94, N-{[2-fluoro-5-(trifluoromethyl)phenyl]methyl}-5-[2-(2-hydroxyacet-amido)imidazo[1,2-b]pyridazin-6-yl]-2,6-dimethylpyridine-3-carboxamide]	77	87	
[2H]C([2H])([2H])[C@@H](NC(=O)c1cc(-c2ccc3nc(NC(C)=O)cn3n2)c(C)nc1C)c1cc(C(F)(F)F)ccc1F [Example 67, 5-{2-acetamidoimidazo[1,2-b]pyridazin-6-yl}-N-[(1R)-1-[2-fluoro-5-(trifluoromethyl)phenyl](2,2,2-deutero)ethyl]-2,6-dimethylpyridine-3-carboxamide]	14	14	
[2H]C([2H])(NC(=O)c1cc(-c2ccc3nc(NC(=O)CO)cn3n2)cnc1C)c1cc(F)cc(F)c1OC1CCOCC1 [Example 184, N-{[3,5-difluoro-2-(oxan-4-yloxy)phenyl](deutero)methyl}-5-[2-(2-hydroxyacetamido)imidazo [1,2-b]pyridazin-6-yl]-2-methylpyridine-3-carboxamide]	9	177	
